Experimental data reported in patent publication US20220169643A1, “ESTROGEN RECEPTOR DEGRADING PROTACS” (AstraZeneca AB, priority 2019, published 2022).

Target: T1, Estrogen Receptor Alpha Ligand binding domain (ER alpha-LBD (GST)) (Homo sapiens, UniProt P03372)
T1 construct: made in house
T1 sequence (P03372 307-554): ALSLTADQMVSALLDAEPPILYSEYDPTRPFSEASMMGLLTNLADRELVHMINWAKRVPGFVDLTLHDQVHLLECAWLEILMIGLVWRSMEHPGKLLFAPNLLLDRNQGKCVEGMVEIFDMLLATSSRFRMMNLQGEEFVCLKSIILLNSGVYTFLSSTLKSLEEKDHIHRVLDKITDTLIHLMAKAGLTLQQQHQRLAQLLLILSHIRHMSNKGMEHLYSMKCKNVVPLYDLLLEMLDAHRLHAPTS
Assay: ERα Binding Assay (LanthaScreen TR-FRET competition)
Settings: competitive displacement of Fluormone ES2 tracer from recombinant human ER alpha-LBD (residues 307-554), 4 hours at room temperature
Protocol: The ability of compounds to bind to isolated Estrogen Receptor Alpha Ligand binding domain (ER alpha-LBD (GST)) was assessed in competition assays using a LanthaScreen™ Time-Resolved Fluorescence Resonance Energy Transfer (TR-FRET) detection end-point. For the LanthaScreen TR-FRET endpoint, a suitable fluorophore (Fluormone ES2, ThermoFisher, Product code P2645) and recombinant human Estrogen Receptor alpha ligand binding domain, residues 307-554 (expressed and purified in-house) were used to measure compound binding. The assay principle is that ER alpha-LBD (GST) is added to a fluorescent ligand to form a receptor/fluorophore complex. A terbium-labelled anti-GST antibody (Product code PV3551) is used to indirectly label the receptor by binding to its GST tag, and competitive binding is detected by a test compound's ability to displace the fluorescent ligand, resulting in a loss of TR-FRET signal between the Th-anti-GST antibody and the tracer. The assay was performed as follows with all reagent additions carried out using the Beckman Coulter BioRAPTR FRD microfluidic workstation: • 1. Acoustic dispense 120 nL of the test compound into a black low volume 384 well assay plates. • 2. Prepare 1×ER alpha-LBD/Tb-anti-GST Ab in ES2 screening buffer and incubate for 15 minutes. • 3. Dispense 6 μL of the 1×[…]/Th-anti-GST Ab reagent into each well of the assay plate followed by 6 μL of Fluorophore reagent into each well of the assay plate • 4. Cover the assay plate to protect the reagents from light and evaporation, and incubate at room temperature for 4 hours. • 5. Excite at 337 nm and measure the fluorescent emission signal of each well at 490 nm and 520 nm using the BMG PheraSTAR.
Compounds were dosed directly from a compound source microplate containing serially diluted compound (4 wells containing 10 mM, […] and 10 nM final compound respectively) to an assay microplate using the Labcyte Echo 550. The Echo 550 is a liquid handler that uses acoustic technology to perform direct microplate-to-microplate transfers of DMSO compound solutions and the system can be programmed to transfer multiple small nL volumes of compound from the different source plate wells to give the desired serial dilution of compound in the assay which is then back-filled to normalise the DMSO concentration across the dilution range.
In total 120 nL of compound plus DMSO were added to each well and compounds were tested in a 12-point concentration response format over a final compound concentration range of 10, 2.917, 1.042, 0.2083, 0.1, 0.0292, 0.0104, 0.002083, 0.001, 0.0002917, 0.0001042, and 0.00001 μM respectively. TR-FRET dose response data obtained with each compound was exported into a suitable software package (such as Origin or Genedata) to perform curve fitting analysis. Competitive ER alpha binding was expressed as an IC50 value. This was determined by calculation of the concentration of compound that was required to give a 50% reduction in tracer compound binding to ER alpha-LBD.

Molecule | IC50 [nM]
C[C@@H]1Cc2c([nH]c3ccccc23)[C@@H](c2cnc(N3CC(CCN4CCN(c5ccc6c(c5)CN(C5CCC(=O)NC5=O)C6=O)CC4)C3)nc2)N1CC(C)(C)F (stereo partly drawn) [Example 37, 3-(5-{4-[2-(1-{5-[(1R,3R)-2-(2-fluoro-2-methylpropyl)-3-methyl-2,3,4,9-tetrahydro-1H-beta-carbolin-1-yl]pyrimidin-2-yl}azetidin-3-yl)ethyl]piperazin-1-yl}-1-oxo-1,3-dihydro-2H-isoindol-2-yl)piperidine-2,6-dione] | 3.3
3-[5-(9-{2-[(1S,3r)-3-({5-[(1R,3R)-2-(2-fluoro-2-methylpropyl)-3-methyl-2,3,4,9-tetrahydro-1H-beta-carbolin-1-yl]pyrimidin-2-yl}oxy)cyclobutyl]ethyl}-3,9-diazaspiro[5.5]undecan-3-yl)-1-oxo-1,3-dihydro-2H-isoindol-2-yl]piperidine-2,6-dione [Example 23] | 4.4
